What was measured:
Assay type in all cases: binding
[1] = target: T1, Lsd18 (Streptomyces lasalocidi, UniProt B5M9L6, T173M/S179M); test: X-ray crystal structure ([…] Å); FAD content by absorbance at […] nm; settings: co-purified FAD; reductively ethylated protein for crystals
T1 construct: full-length gene in pCold (NdeI/EcoRI), E. coli BL21(DE3) with chaperone plasmid pG-KJE8, Ni beads and gel filtration; reductively ethylated for crystals only

[2] = target: T2, Lsd18 (Streptomyces lasalocidi, UniProt B5M9L6, T173M); test: bound FAD released by heating, absorbance at […] nm; settings: co-purified FAD; 20 mM Tris pH 8.5, 150 mM NaCl
T2 construct: full-length gene in pCold (NdeI/EcoRI), E. coli BL21(DE3) with chaperone plasmid pG-KJE8, Ni beads and gel filtration; reductively ethylated for crystals only

[3] = target: T3, Lsd18 (Streptomyces lasalocidi, UniProt B5M9L6); test: bound FAD released by heating ([…] °C, […] min), absorbance at […] nm; settings: co-purified FAD; 20 mM Tris pH 8.5, 150 mM NaCl
T3 construct: full-length gene in pCold (NdeI/EcoRI), E. coli BL21(DE3) with chaperone plasmid pG-KJE8, Ni beads and gel filtration; reductively ethylated for crystals only
T3 sequence (B5M9L6 1-472): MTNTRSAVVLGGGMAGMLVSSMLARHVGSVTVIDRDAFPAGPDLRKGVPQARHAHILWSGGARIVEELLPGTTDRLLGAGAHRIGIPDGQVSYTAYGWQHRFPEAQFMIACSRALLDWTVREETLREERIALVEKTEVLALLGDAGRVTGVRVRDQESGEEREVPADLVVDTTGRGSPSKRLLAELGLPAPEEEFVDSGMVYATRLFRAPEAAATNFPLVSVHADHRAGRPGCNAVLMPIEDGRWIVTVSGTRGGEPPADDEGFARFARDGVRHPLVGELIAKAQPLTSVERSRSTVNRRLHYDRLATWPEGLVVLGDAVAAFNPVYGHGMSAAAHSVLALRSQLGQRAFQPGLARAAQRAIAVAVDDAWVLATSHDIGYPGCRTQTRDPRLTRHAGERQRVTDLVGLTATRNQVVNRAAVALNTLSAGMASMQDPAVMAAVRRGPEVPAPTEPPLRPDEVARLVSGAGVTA

[4] = target: T4, Lsd18 (Streptomyces lasalocidi, UniProt B5M9L6, S179M); test: bound FAD released by heating, absorbance at […] nm; settings: co-purified FAD; 20 mM Tris pH 8.5, 150 mM NaCl
T4 construct: full-length gene in pCold (NdeI/EcoRI), E. coli BL21(DE3) with chaperone plasmid pG-KJE8, Ni beads and gel filtration; reductively ethylated for crystals only
T4 sequence (B5M9L6 whole entry S179M): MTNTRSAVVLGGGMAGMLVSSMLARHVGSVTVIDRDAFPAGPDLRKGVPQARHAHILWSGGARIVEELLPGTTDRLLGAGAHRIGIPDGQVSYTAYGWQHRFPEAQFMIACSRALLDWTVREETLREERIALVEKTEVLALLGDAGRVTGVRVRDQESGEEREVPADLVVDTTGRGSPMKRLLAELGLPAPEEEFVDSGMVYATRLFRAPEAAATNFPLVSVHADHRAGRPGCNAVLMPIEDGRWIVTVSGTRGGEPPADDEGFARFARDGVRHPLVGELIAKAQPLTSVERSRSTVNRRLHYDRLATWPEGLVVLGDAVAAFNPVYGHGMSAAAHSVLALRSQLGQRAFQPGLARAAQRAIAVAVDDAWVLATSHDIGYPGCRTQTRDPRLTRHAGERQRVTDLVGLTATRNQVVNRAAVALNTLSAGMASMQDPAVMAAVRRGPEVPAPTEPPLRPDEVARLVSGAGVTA

T2 sequence (B5M9L6 whole entry T173M): as the sequence (B5M9L6 whole entry S179M) above, with T173M, M179S counted along it
T1 sequence (B5M9L6 whole entry T173M/S179M): as the sequence (B5M9L6 whole entry S179M) above, with T173M counted along it

For Cc1cc2nc3c(=O)[nH]c(=O)nc-3n(C[C@H](O)[C@H](O)[C@H](O)COP(=O)(O)OP(=O)(O)OC[C@H]3O[C@@H](n4cnc5c(N)ncnc54)[C@H](O)[C@@H]3O)c2cc1C [FAD], the “X-ray crystal structure (3.76 Å); FAD content by absorbance at 451 nm” value [1] was “M189 forms a hydrogen bond with the cofactor FAD that could stabilize the binding”, the FAD content [2] was “the FAD content in the mutants Lsd18-T189M, Lsd18-S195M, Lsd18-T189M-S195M increased” and the FAD content [3] was “the yellower the color of Lsd18 (attributed to bound FAD), the more stable it was”. The FAD content [4] was “the FAD content in the mutants Lsd18-T189M, Lsd18-S195M, Lsd18-T189M-S195M increased”.

From publication PMC10706071, “Simultaneous Improvement in the Thermostability and Catalytic Activity of Epoxidase Lsd18 for the Synthesis of Lasalocid A” (International Journal of Molecular Sciences, 2023)
